{
  "source": "patent US8802597B2",
  "about": "“Herbicidal pyrimidines” (E I du Pont de Nemours and Company, priority 2003, dated 2014)",
  "assay_in_all_cases": "Test I mixtures of compound 9 with metsulfuron-methyl and chlorsulfuron-metsulfuron-methyl (5:1)",
  "format_in_all_cases": "in vivo",
  "conditions_in_all_cases": "applied alone",
  "key": {"[1]": {"tested_on": "redroot pigweed (AMARE; Amaranthus retroflexus)", "from_the_text": "(§1) This test evaluated the effect of mixtures of compound 9 with metsulfuron-methyl and with a 5:1 by weight combination of chlorsulfuron and metsulfuron-methyl on several plant species. Seeds of test plants consisting of wheat (TRZAW; Triticum aestivum), wild buckwheat, (POLCO; Polygonum convolvulus), redroot pigweed (AMARE; Amaranthus retroflexus), wild mustard (SINAR; Sinapis arvensis), catchweed bedstraw (GALAP; Galium aparine), Russian thistle (SASKR; Salsola kali), common chickweed (STEME; Stellaria media), kochia (KCHSC; Kochia scoparia), and lambsquarters (CHEAL; Chenopodium album) were planted into a blend of loam soil and sand. Plants were grown in a greenhouse using supplemental lighting to maintain a photoperiod of about 14 hours; daytime and nighttime temperatures were about 23° C. and 16° C., respectively. Balanced fertilizer was applied through the watering system. The plants were grown for 10 to 23 days so that at time of treatment the plants ranged from 2- to 8-leaf stage. Treatments consisted of Compound 9, metsulfuron-methyl, and chlorsulfuron-metsulfuron-methyl (5:1) alone and in combination. The treatments were formulated in a non-phytotoxic solvent mixture which included a surfactant and applied as a foliage spray using a volume of 280-458 L/ha. Each treatment was replicated three times. […] Treated plants and controls were maintained in the greenhouse and watered as needed with care to not wet the foliage for the first 24 hours after treatment. The effects on the plants approximately 17 days after treatment were visually compared to untreated controls. Plant response ratings were calculated as the means of the three replicates, based on a scale of 0 to 100 where 0 is no effect and 100 is complete control. Colby's Equation was used to determine the herbicidal effects expected from the mixtures."}, "[2]": {"tested_on": "common chickweed (STEME; Stellaria media)", "from_the_text": "as §1"}, "[3]": {"tested_on": "kochia (KCHSC; Kochia scoparia)", "from_the_text": "as §1"}, "[4]": {"tested_on": "wheat (TRZAW; Triticum aestivum)", "from_the_text": "as §1"}},
  "data": [
    {"compound": "COC(=O)c1nc(C2CC2)nc(N)c1Cl", "note": "[Compound 9, methyl 6-amino-5-chloro-2-cyclopropyl-4-pyrimidinecarboxylate]", "values": [
      {"measurement": "AMARE Obsd. (observed effect)", "setting": "[1]; 4 g a.i./ha", "value": 62},
      {"measurement": "AMARE Obsd. (observed effect)", "setting": "[1]; 8 g a.i./ha", "value": 70},
      {"measurement": "STEME Obsd. (observed effect)", "setting": "[2]; 4 g a.i./ha", "value": 47},
      {"measurement": "STEME Obsd. (observed effect)", "setting": "[2]; 8 g a.i./ha", "value": 55},
      {"measurement": "KCHSC Obsd. (observed effect)", "setting": "[3]; 4 g a.i./ha", "value": 70},
      {"measurement": "KCHSC Obsd. (observed effect)", "setting": "[3]; 8 g a.i./ha", "value": 87},
      {"measurement": "TRZAW Obsd. (observed effect)", "setting": "[4]; Chlorsulfuron-Metsulfuron-Methyl series, 8 g a.i./ha", "value": 30},
      {"measurement": "TRZAW Obsd. (observed effect)", "setting": "[4]; Chlorsulfuron-Metsulfuron-Methyl series, 16 g a.i./ha", "value": 43},
      {"measurement": "TRZAW Obsd. (observed effect)", "setting": "[4]; Metsulfuron-Methyl series, 4 g a.i./ha", "value": 8},
      {"measurement": "TRZAW Obsd. (observed effect)", "setting": "[4]; Metsulfuron-Methyl series, 8 g a.i./ha", "value": 12}
    ]}
  ]
}
